Results published in US20250304549A1, “HYDROXYAMIDE DERIVATIVE AND USE THEREOF” (SICHUAN HUIYU PHARMACEUTICAL CO., LTD., priority 2022, published 2025).
Where a name gives a salt, the structure may show the parent alone.

Experiments:
LSD1 = LSD1 (Homo sapiens (Human), UniProt O60341); assay: In vitro enzyme inhibition assay - LSD1 (HTRF); type: biochemical
pan-HDAC = assay: In vitro enzyme inhibition assay - HDAC (HDAC-Glo I/II), pan-HDAC; type: biochemical
Summary of the method: (§1)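 The compound, serially diluted 5-fold in DMSO across 8 concentrations starting from a 1 mM stock, was made up as 4× working solutions in HDAC buffer. It was then tested in the HDAC-Glo I/II system, and luminescence was recorded. IC50 values came from variable-slope four-parameter curves of inhibition rate.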

HDAC1 = HDAC1 (Homo sapiens (Human), UniProt Q13547); assay: In vitro enzyme inhibition assay - HDAC (HDAC-Glo I/II), HDAC1; type: biochemical; conditions: read-out: HDAC IC50 (nM) HDAC 1
Procedure: 2. In Vitro Enzyme Inhibition Assay—HDAC
The effect of the compound on the enzymatic activity of pan-HDAC and two isoforms (HDAC1 and HDAC8) was examined using the HDAC-Glo I/II Assay and Screening System assay to assess the level of inhibition of HDAC protease activity and selectivity in each isoform. The proteins and detection reagents were from the HDAC-Glo™ I/II Assay and Screening System (Promega). A 1 mM stock solution of the compound was prepared in DMSO and diluted in a 5-fold gradient to create a series of 8 concentrations, and a specific volume of the highest concentration was diluted 25 times with HDAC Buffer to obtain 4× working solution of the compound. […] The 384-well plate was then read on a multifunctional microplate reader, with the Luminescence channel selected to record Luminescence values (RLU). The inhibition rate was calculated using the following formula: […]
Note: ‘Negative’ refers to the group without the inhibitor; ‘Blank’ refers to the group without the enzyme.
The IC50 value was calculated by fitting the inhibition rate by GraphPad Prism software, employing log (inhibitor) vs. response-Variable Slope (four parameters) model.

HDAC8 = HDAC8 (Homo sapiens (Human), UniProt Q9BY41); assay: In vitro enzyme inhibition assay - HDAC (HDAC-Glo I/II), HDAC8; type: biochemical; conditions: read-out: HDAC IC50 (nM) HDAC 8
Summary of the method: as §1

NCI-H1417 cells = assay: In vitro cell inhibition assay - H1417 cell proliferation (CellTiter-Glo); type: cell-based; conditions: Homo sapiens, NCI-H1417, H1417 small cell lung cancer cell proliferation
Summary of the method: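 Cells exposed to 8 compound concentrations (5-fold dilutions) in BEGM with 10% FBS for 7 days at 37° C., 5% CO2. Viable cells measured by CellTiter-Glo luminescence; inhibition versus no-inhibitor and no-cell controls, IC50 fitted.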

NCI-H69 cells = assay: In vitro cell inhibition assay - NCI-H69 cell proliferation (CellTiter-Glo); type: cell-based; conditions: Homo sapiens, NCI-H69, H69 small cell lung cancer cell proliferation
Summary of the method: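 Over 7 days at 37° C. and 5% CO2, cells grew in RPMI-640 supplemented with 20% FBS in the presence of eight 5-fold-spaced compound concentrations.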

NCI-H526 cells = assay: In vitro cell inhibition assay - NCI-H526 cell proliferation (CellTiter-Glo); type: cell-based; conditions: Homo sapiens, NCI-H526, 120 h, H526 small cell lung cancer cell proliferation, 5 days
Summary of the method: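 NCI-H526 cells plated at 1×10^3 per well overnight, then treated with 8 concentrations (5-fold dilutions) in RPMI-640 with 10% FBS for 5 days at 37° C., 5% CO2. Viable cells quantified by CellTiter-Glo luminescence; IC50 fitted from inhibition rates relative to no-inhibitor and no-cell controls.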

HDAC1, sequence (Q13547 whole entry): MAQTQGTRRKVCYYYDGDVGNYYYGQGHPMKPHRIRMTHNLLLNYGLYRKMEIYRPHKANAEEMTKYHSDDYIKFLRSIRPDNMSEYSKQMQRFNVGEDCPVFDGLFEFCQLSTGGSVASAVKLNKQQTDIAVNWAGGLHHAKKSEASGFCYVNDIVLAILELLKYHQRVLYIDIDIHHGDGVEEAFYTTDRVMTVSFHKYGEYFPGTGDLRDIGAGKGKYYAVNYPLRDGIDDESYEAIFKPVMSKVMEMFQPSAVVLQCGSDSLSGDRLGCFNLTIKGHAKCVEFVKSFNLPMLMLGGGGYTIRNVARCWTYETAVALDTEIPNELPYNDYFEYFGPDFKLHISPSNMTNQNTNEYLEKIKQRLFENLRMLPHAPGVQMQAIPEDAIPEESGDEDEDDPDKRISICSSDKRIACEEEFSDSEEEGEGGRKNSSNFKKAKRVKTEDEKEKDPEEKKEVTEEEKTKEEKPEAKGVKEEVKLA
HDAC8, sequence (Q9BY41 whole entry): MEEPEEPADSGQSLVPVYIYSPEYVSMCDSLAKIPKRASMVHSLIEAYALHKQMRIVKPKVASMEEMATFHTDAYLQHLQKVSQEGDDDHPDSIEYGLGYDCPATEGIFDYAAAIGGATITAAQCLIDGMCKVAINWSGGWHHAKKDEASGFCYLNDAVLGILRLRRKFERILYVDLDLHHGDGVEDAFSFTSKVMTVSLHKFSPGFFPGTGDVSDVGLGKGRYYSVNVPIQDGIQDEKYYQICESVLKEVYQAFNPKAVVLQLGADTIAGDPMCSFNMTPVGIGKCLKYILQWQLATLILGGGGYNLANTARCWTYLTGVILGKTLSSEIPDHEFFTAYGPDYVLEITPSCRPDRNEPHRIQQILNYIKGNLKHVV

Row | Structure (SMILES) | IC50 (LSD1) | IC50 (pan-HDAC) | IC50 (HDAC1) | IC50 (HDAC8) | IC50 (NCI-H1417 cells) | IC50 (NCI-H69 cells) | IC50 (NCI-H526 cells)
1 | N#Cc1ccc(-c2c(-c3ccc(/C=C/C(=O)NO)c(O)c3)cnc(N3CCC(N)CC3)c2C#N)cc1F [Example 62, (E)-3-(4-(6-(4-Aminopiperidin-1-yl)-5-cyano-4-(4-cyano-3-fluorophenyl)pyridin-3-yl)-2-hydroxyphenyl)-N-hydroxyacrylamide hydrochloride] | 0.49 nM | 5.53 nM | 17.3 nM | 3190 nM | 9.86 nM | 3220 nM | 1210 nM
2 | COc1ccc(-c2cnc(N3CCC(NC(C)(C)c4ccc(/C=C/C(=O)NO)cc4)CC3)c(C#N)c2-c2ccc(C#N)c(F)c2)cc1O [Example 179, (E)-3-(4-(2-((1-(3-Cyano-4-(4-cyano-3-fluorophenyl)-5-(3-hydroxy-4-methoxyphenyl)pyridin-2-yl)piperidin-4-yl)amino)propan-2-yl)phenyl)-N-hydroxyacrylamide formate] | 100 nM | 3.1 nM | 1.74 nM | 374 nM | 3.66 nM | 2.75 nM | 4.44 nM
3 | COc1ccc(-c2cnc(N3CCC(NCc4ccc(OCC(=O)NO)cc4)CC3)c(C#N)c2-c2ccc(C#N)c(F)c2)cc1O [Example 181] | 0.13 nM | 2.11 nM | 0.08 nM | 75.1 nM | 2.93 nM | 13.1 nM | 28.4 nM
4 | N#Cc1ccc(-c2c(-c3ccc(Cl)c(O)c3)cnc(N3CCC(NCc4ccc(/C=C/C(=O)NO)cc4)CC3)c2C#N)cn1 [Example 237, (E)-3-(4-((1-(5′-(4-Chloro-3-hydroxyphenyl)-3′,6-dicyano-[3,4′-bipyridin]-2′-yl)piperidin-4-yl)amino)methyl) phenyl)-N-hydroxyacrylamide formate] | 1.75 nM | 3.37 nM | 1.29 nM | – | 4.06 nM | 3.27 nM | 4.4 nM
5 | N#Cc1ccc(-c2c(-c3ccc(Cl)c(O)c3)cnc(N3CCC(NCc4ccc(/C=C/C(=O)NO)cn4)CC3)c2C#N)cn1 [Example 238, (E)-3-(6-((1-(5′-(4-Chloro-3-hydroxyphenyl)-3′,6-dicyano-[3,4′-bipyridin]-2′-yl)piperidin-4-yl)amino)methyl) pyridin-3-yl)-N-hydroxyacrylamide formate] | 3.48 nM | 4.05 nM | 1.62 nM | – | 25.7 nM | 28.7 nM | 56.1 nM
6 | COc1cc(F)c(-c2cnc(N3CCC(NCc4ccc(/C=C/C(=O)NO)cn4)CC3)c(C#N)c2-c2ccc(C#N)nc2)cc1O [Example 240, (E)-3-(6-(((1-(3′,6-Dicyano-5′-(2-fluoro-5-hydroxy-4-methoxyphenyl)-[3,4′-bipyridin]-2′-yl)piperidin-4-yl)amino)methyl)pyridin-3-yl)-N-hydroxyacrylamide formate] | 0.82 nM | 4.73 nM | 1.85 nM | – | 9.62 nM | 24.8 nM | 60.9 nM
7 | COc1ccc(-c2cnc(N3CCC(NCc4ccc(/C=C/C(=O)NO)cc4)CC3)c(C#N)c2-c2cnc(C#N)c(OC)c2)cc1O [Example 243, (E)-3-(4-(((1-(3′,6-Dicyano-5′-(3-hydroxy-4-methoxyphenyl)-5-methoxy-[3,4′-bipyridin]-2′-yl)piperidin-4-yl)amino)methyl)phenyl)-N-hydroxyacrylamide hydrochloride] | 13.6 nM | 1.74 nM | 0.6 nM | – | 10.5 nM | 3.24 nM | 10.6 nM
8 | N#Cc1ccc(-c2c(-c3ccc(N4CCOCC4)c(O)c3)cnc(N3CCC(NCc4ccc(/C=C/C(=O)NO)cc4)CC3)c2C#N)cn1 [Example 244, (E)-3-(4-(((1-(3′,6-Dicyano-5′-(3-hydroxy-4-morpholinophenyl)-[3,4′-bipyridin]-2′-yl)piperidin-4-yl)amino)methyl)phenyl)-N-hydroxyacrylamide formate] | 0.98 nM | 1.54 nM | 0.51 nM | – | 2.83 nM | 1.66 nM | 16.2 nM
9 | COc1ccc(-c2cnc(N3CCC(NCc4ccc(/C=C/C(=O)NO)cc4)CC3)c(C#N)c2-c2cnc(C#N)c(C)c2)cc1O [Example 247, (E)-3-(4-(((1-(3′,6-Dicyano-5′-(3-hydroxy-4-methoxyphenyl)-5-methyl-[3,4′-bipyridin]-2′-yl)piperidin-4-yl)amino)methyl)phenyl)-N-hydroxyacrylamide formate] | 3.49 nM | 0.87 nM | 0.84 nM | – | 4.93 nM | 3.17 nM | 7.56 nM
10 | COc1ccc(-c2cnc(N3CCC(NCc4ccc(/C=C/C(=O)NO)cc4)CC3)c(C#N)c2-c2ccc([N+](=O)[O-])nc2)cc1O [Example 248, (E)-3-(4-(((1-(3′-Cyano-5′-(3-hydroxy-4-methoxyphenyl)-6-nitro-[3,4′-bipyridin]-2′-yl)piperidin-4-yl)amino)methyl)phenyl)-N-hydroxyacrylamide formate] | 0.81 nM | 0.62 nM | 0.61 nM | – | 5.33 nM | 3.94 nM | 9.06 nM

Now from value to compound:

Row | IC50 (LSD1) | IC50 (pan-HDAC) | IC50 (HDAC1) | IC50 (HDAC8) | IC50 (NCI-H1417 cells) | IC50 (NCI-H69 cells) | IC50 (NCI-H526 cells) | Structure (SMILES)
11 | 0.09 nM | 3.02 nM | 1.3 nM | 30.1 nM | 9.29 nM | 4.36 nM | 7.04 nM | N#Cc1ccc(-c2c(-c3ccc4cn[nH]c4c3)cnc(N3CCC(NCc4ccc(/C=C/C(=O)NO)nc4)CC3)c2C#N)cc1F [Example 182, (E)-3-(5-(((1-(3-Cyano-4-(4-cyano-3-fluorophenyl)-5-(1H-indazol-6-yl)pyridin-2-yl)piperidin-4-yl)amino)methyl)pyridin-2-yl)-N-hydroxyacrylamide formate]
12 | 0.09 nM | 6.58 nM | 1.69 nM | 45.2 nM | 10.2 nM | 8.97 nM | 15.9 nM | N#Cc1ccc(-c2c(-c3ccc4cn[nH]c4c3)cnc(N3CCC(NCc4cnc(/C=C/C(=O)NO)nc4)CC3)c2C#N)cc1F [Example 184, (E)-3-(5-((1-(3-Cyano-4-(4-cyano-3-fluorophenyl)-5-(1H-indazol-6-yl)pyridin-2-yl)piperidin-4-yl)amino)methyl) pyrimidin-2-yl)-N-hydroxyacrylamide formate]
13 | 4.11 nM | 3.71 nM | 1.98 nM | 15.5 nM | 4.89 nM | 14.8 nM | 20.9 nM | CC(C)(O)COc1ccc(-c2cnc(N3CCC(NCc4cnc(/C=C/C(=O)NO)nc4)CC3)c(C#N)c2-c2ccc(C#N)c(F)c2)cc1O [Example 187, (E)-3-(5-(((1-(3-Cyano-4-(4-cyano-3-fluorophenyl)-5-(3-hydroxy-4-(2-hydroxy-2-methylpropoxy)phenyl)pyridin-2-yl)piperidin-4-yl)amino)methyl)pyrimidin-2-yl)-N-hydroxyacrylamide formate]
14 | 0.64 nM | 11.3 nM | 9.71 nM | – | 7.36 nM | 24.1 nM | 109 nM | COc1ccc(-c2cnc(N3CCC(NCc4cnc(/C=C/C(=O)NO)cc4Cl)CC3)c(C#N)c2-c2ccc(C#N)c(F)c2)cc1O [Example 227, (E)-3-(4-Chloro-5-(((1-(3-cyano-4-(4-cyano-3-fluorophenyl)-5-(3-hydroxy-4-methoxyphenyl)pyridin-2-yl)piperidin-4-yl)amino)methyl)pyridin-2-yl)-N-hydroxyacrylamide formate]
15 | 2.95 nM | 7.81 nM | 1.86 nM | – | 5.78 nM | 5.7 nM | 11.2 nM | N#Cc1ccc(-c2c(-c3ccc(Cl)c(O)c3)cnc(N3CCC(NCc4ccc(/C=C/C(=O)NO)cc4F)CC3)c2C#N)cn1 [Example 241, (E)-3-(4-(((1-(5′-(4-Chloro-3-hydroxyphenyl)-3′,6-dicyano-[3,4′-bipyridin]-2′-yl)piperidin-4-yl)amino)methyl)-3-fluorophenyl)-N-hydroxyacrylamide formate]
